PubChem BioAssay AID256 (DTP/NCI, 2004)
“And” between values parts separate entries of the source, which are not always exact repeats. Equal entries are not always repeated. Toxic doses and inconclusive results are not listed.

Test system: CD2F1 mice, L1210 leukemia ip, survival T/C
Assay: NCI In Vivo Anticancer Drug Screen. Data for tumor model L1210 Leukemia (intraperitoneal) in CD2F1 (CDF1) mice
Conditions: higher = longer survival
Outline: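 Read-out first: treated-group measurement over vehicle-control measurement, expressed as a ratio. Animals bore a transplanted tumor line and were dosed with compound or vehicle.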

[1] = endpoint: mean survival time, dose: 100.0 mg/kg/injection, schedule: Q01DX001 (ip), vehicle: Klucel (hydroxypropylcellulose) (HPC)
[2] = endpoint: mean survival time, dose: 200.0 mg/kg/injection, schedule: Q01DX001 (ip), vehicle: Klucel (hydroxypropylcellulose) (HPC)
[3] = endpoint: mean survival time, dose: 100.0 mg/kg/injection, schedule: Q04DX003 (ip), vehicle: saline with Tween-80
[4] = endpoint: mean survival time, dose: 200.0 mg/kg/injection, schedule: Q04DX003 (ip), vehicle: saline with Tween-80
[5] = endpoint: mean survival time, dose: 400.0 mg/kg/injection, schedule: Q04DX003 (ip), vehicle: saline with Tween-80
[6] = endpoint: mean survival time, dose: 100.0 mg/kg/injection, schedule: Q01DX009 (ip), vehicle: saline with Tween-80
[7] = endpoint: mean survival time, dose: 200.0 mg/kg/injection, schedule: Q01DX009 (ip), vehicle: saline with Tween-80
[8] = endpoint: mean survival time, dose: 400.0 mg/kg/injection, schedule: Q01DX009 (ip), vehicle: saline with Tween-80
[9] = endpoint: mean survival time, dose: 100.0 mg/kg/injection, schedule: Q01DX009 (ip), vehicle: saline

In the case of `COc1ccc(C(=O)NNC(=O)c2ccc(OC)cc2)cc1`, the T/C [1] is reported as 108 % of control, the T/C [2] is reported as 104 % of control and the T/C (endpoint: mean survival time, dose: 400.0 mg/kg/injection, schedule: Q01DX001 (ip), vehicle: Klucel (hydroxypropylcellulose) (HPC)) is reported as 100 % of control.

`N#CCc1c(Cl)c(Cl)c(Cl)c(Cl)c1Cl` was tested, and the T/C [3] was 103 % of control, the T/C [4] was 103 % of control and the T/C [5] was 102 % of control.

For `CC(C)(C)C1=CC(C(C)(C)C)CCC1=O` (configuration not stated), the T/C (endpoint: mean survival time, dose: 100.0 mg/kg/injection, schedule: Q01DX009 (ip), vehicle: acetone) was 94 % of control and the T/C (endpoint: mean survival time, dose: 200.0 mg/kg/injection, schedule: Q01DX009 (ip), vehicle: acetone) was 94 % of control.

For `CC(=O)C/C=C(\C)CCC=C(C)C`, the T/C (endpoint: mean survival time, dose: 100.0 mg/kg/injection, schedule: Q04DX003 (ip), vehicle: acetone) was 91 % of control, the T/C (endpoint: mean survival time, dose: 200.0 mg/kg/injection, schedule: Q04DX003 (ip), vehicle: acetone) was 94 % of control and the T/C (endpoint: mean survival time, dose: 400.0 mg/kg/injection, schedule: Q04DX003 (ip), vehicle: acetone) was 98 % of control.

For `COC(=O)C1OC(C)(C)OC1C(=O)OC` (configuration not stated), the T/C (endpoint: mean survival time, dose: 1.56 mg/kg/injection, schedule: Q01DX001 (ip), vehicle: saline with Tween-80) was 103 % of control, the T/C (endpoint: mean survival time, dose: 3.12 mg/kg/injection, schedule: Q01DX001 (ip), vehicle: saline with Tween-80) was 100 % of control and the T/C (endpoint: mean survival time, dose: 6.25 mg/kg/injection, schedule: Q01DX001 (ip), vehicle: saline with Tween-80) was 95 % of control.

`COc1cc2c3c(c1)-c1c(ccc(OC)c1OC)CC3N(CCN(CCCl)CCCl)CC2` (configuration not stated) was tested, and the T/C (endpoint: mean survival time, dose: 6.25 mg/kg/injection, schedule: Q04DX003 (ip), vehicle: saline) was 101 % of control, the T/C (endpoint: mean survival time, dose: 12.5 mg/kg/injection, schedule: Q04DX003 (ip), vehicle: saline) was 98 % of control and the T/C (endpoint: mean survival time, dose: 25.0 mg/kg/injection, schedule: Q04DX003 (ip), vehicle: saline) was 101 % of control. The T/C (endpoint: mean survival time, dose: 50.0 mg/kg/injection, schedule: Q04DX003 (ip), vehicle: saline) was 101 % of control and the T/C (endpoint: mean survival time, dose: 100.0 mg/kg/injection, schedule: Q04DX003 (ip), vehicle: saline) was 87 % of control.

In the case of `Cc1ccc(N2C(=O)CC(Sc3ccccc3N)C2=O)cc1Cl` (configuration not stated), the T/C [6] is reported as 95 % of control, the T/C [7] is reported as 103 % of control and the T/C [8] is reported as 95 % of control.

With `O=P(N1CCCCCC1)(N1CCCCCC1)N1CCCCCC1.O=[N+]([O-])O.O=[N+]([O-])O.[O]=[U]=[O]` the T/C (endpoint: mean survival time, dose: 6.25 mg/kg/injection, schedule: Q04DX003 (ip), vehicle: Klucel (hydroxypropylcellulose) (HPC)) was 109 % of control.

With `CON(C)N=Nc1ccc(C(N)=O)cc1` the T/C (endpoint: mean survival time, dose: 4.68 mg/kg/injection, schedule: Q01DX009 (ip), vehicle: Klucel (hydroxypropylcellulose) (HPC)) was 96 % of control and 110 % of control, the T/C (endpoint: mean survival time, dose: 9.37 mg/kg/injection, schedule: Q01DX009 (ip), vehicle: Klucel (hydroxypropylcellulose) (HPC)) was 87 % of control and 109 % of control and the T/C (endpoint: mean survival time, dose: 18.75 mg/kg/injection, schedule: Q01DX009 (ip), vehicle: Klucel (hydroxypropylcellulose) (HPC)) was 96 % of control and 101 % of control. The T/C (endpoint: mean survival time, dose: 37.5 mg/kg/injection, schedule: Q01DX009 (ip), vehicle: Klucel (hydroxypropylcellulose) (HPC)) was 98 % of control and 104 % of control, the T/C (endpoint: mean survival time, dose: 75.0 mg/kg/injection, schedule: Q01DX009 (ip), vehicle: Klucel (hydroxypropylcellulose) (HPC)) was 100 % of control and 103 % of control and the T/C (endpoint: mean survival time, dose: 150.0 mg/kg/injection, schedule: Q01DX009 (ip), vehicle: Klucel (hydroxypropylcellulose) (HPC)) was 114 % of control and 103 % of control. For the same compound, the T/C (endpoint: mean survival time, dose: 300.0 mg/kg/injection, schedule: Q01DX009 (ip), vehicle: Klucel (hydroxypropylcellulose) (HPC)) was 114 % of control.

In the case of `O=C1C(Cc2ccccc2)CCCC1Cc1ccccc1` (configuration not stated), the T/C (endpoint: mean survival time, dose: 100.0 mg/kg/injection, schedule: Q01DX001 (ip), vehicle: saline with Tween-80) is reported as 100 % of control, the T/C (endpoint: mean survival time, dose: 200.0 mg/kg/injection, schedule: Q01DX001 (ip), vehicle: saline with Tween-80) is reported as 98 % of control and the T/C (endpoint: mean survival time, dose: 400.0 mg/kg/injection, schedule: Q01DX001 (ip), vehicle: saline with Tween-80) is reported as 102 % of control.

`CCOC(=O)CC1OCCO1` was tested, and the T/C [3] was 98 % of control, the T/C [4] was 103 % of control and the T/C [5] was 101 % of control.

With `CN=NNc1ccccc1` the T/C (endpoint: mean survival time, dose: 75.0 mg/kg/injection, schedule: Q01DX001 (ip), vehicle: saline) was 117 % of control, the T/C (endpoint: mean survival time, dose: 75.0 mg/kg/injection, schedule: Q04DX003 (ip), vehicle: saline with Tween-80) was 122 % of control and the T/C [3] was 119 % of control. For the same compound, the T/C (endpoint: mean survival time, dose: 150.0 mg/kg/injection, schedule: Q04DX003 (ip), vehicle: saline with Tween-80) was 153 % of control and the T/C (endpoint: mean survival time, dose: 225.0 mg/kg/injection, schedule: Q04DX003 (ip), vehicle: saline with Tween-80) was 86 % of control.

`CC(C)OC(=O)Nc1cc(F)c(F)cc1F` was tested, and the T/C [6] was 103 % of control, the T/C [7] was 103 % of control and the T/C [8] was 103 % of control.

For `O=CNC(Cc1ccc(O)cc1)C(=O)O` (configuration not stated), the T/C [9] was 97 % of control, the T/C (endpoint: mean survival time, dose: 200.0 mg/kg/injection, schedule: Q01DX009 (ip), vehicle: saline) was 94 % of control and the T/C (endpoint: mean survival time, dose: 400.0 mg/kg/injection, schedule: Q01DX009 (ip), vehicle: saline) was 89 % of control.

With `CC(=O)c1ccc2c(c1)Cc1cc(C(C)=O)ccc1-2` the T/C (endpoint: mean survival time, dose: 100.0 mg/kg/injection, schedule: Q04DX003 (ip), vehicle: saline sonified) was 96 % of control, the T/C (endpoint: mean survival time, dose: 200.0 mg/kg/injection, schedule: Q04DX003 (ip), vehicle: saline sonified) was 93 % of control and the T/C (endpoint: mean survival time, dose: 400.0 mg/kg/injection, schedule: Q04DX003 (ip), vehicle: saline sonified) was 98 % of control.

In the case of `C=CCC(C#N)(CC=C)C(=O)OCC`, the T/C (endpoint: mean survival time, dose: 50.0 mg/kg/injection, schedule: Q01DX001 (ip), vehicle: Klucel (hydroxypropylcellulose) (HPC)) is reported as 102 % of control, the T/C [1] is reported as 96 % of control and the T/C [2] is reported as 102 % of control.

In the case of `NC(=O)C1=CC2C3C=CC2(O)C(=O)OC3O1` (configuration not stated), the T/C (endpoint: median survival time, dose: 1.9 mg/kg/injection, schedule: Q01DX009 (ip), vehicle: Klucel (hydroxypropylcellulose) (HPC)) is reported as 108 % of control, the T/C (endpoint: median survival time, dose: 3.75 mg/kg/injection, schedule: Q01DX009 (ip), vehicle: Klucel (hydroxypropylcellulose) (HPC)) is reported as 120 % of control and the T/C (endpoint: median survival time, dose: 7.5 mg/kg/injection, schedule: Q01DX009 (ip), vehicle: Klucel (hydroxypropylcellulose) (HPC)) is reported as 118 % of control. For the same compound, the T/C (endpoint: median survival time, dose: 15.0 mg/kg/injection, schedule: Q01DX009 (ip), vehicle: Klucel (hydroxypropylcellulose) (HPC)) was 117 % of control and the T/C (endpoint: median survival time, dose: 30.0 mg/kg/injection, schedule: Q01DX009 (ip), vehicle: Klucel (hydroxypropylcellulose) (HPC)) was 121 % of control and 110 % of control.

For `c1ccc(P(=N[P+](c2ccccc2)(c2ccccc2)c2ccccc2)(c2ccccc2)c2ccccc2)cc1`, the T/C (endpoint: mean survival time, dose: 0.75 mg/kg/injection, schedule: Q01DX009 (ip), vehicle: saline) was 106 % of control, the T/C (endpoint: mean survival time, dose: 1.5 mg/kg/injection, schedule: Q01DX009 (ip), vehicle: saline) was 103 % of control and the T/C (endpoint: mean survival time, dose: 3.13 mg/kg/injection, schedule: Q01DX009 (ip), vehicle: saline with Tween-80) was 94 % of control. The T/C (endpoint: mean survival time, dose: 3.13 mg/kg/injection, schedule: Q04DX002 (ip), vehicle: saline with Tween-80) was 102 % of control, the T/C (endpoint: mean survival time, dose: 6.25 mg/kg/injection, schedule: Q04DX002 (ip), vehicle: saline with Tween-80) was 110 % of control and the T/C (endpoint: mean survival time, dose: 12.5 mg/kg/injection, schedule: Q04DX002 (ip), vehicle: saline with Tween-80) was 90 % of control and 93 % of control.

`Cn1c(=O)c2[nH]cnc2n(C)c1=O` (tested in a mixture with another compound) was tested, and the T/C (endpoint: mean survival time, dose: 50.0 mg/kg/injection, schedule: Q01DX009 (ip), vehicle: saline sonified) was 98 % of control, the T/C (endpoint: mean survival time, dose: 100.0 mg/kg/injection, schedule: Q01DX009 (ip), vehicle: saline sonified) was 98 % of control and the T/C (endpoint: mean survival time, dose: 200.0 mg/kg/injection, schedule: Q01DX009 (ip), vehicle: saline sonified) was 98 % of control.

`CC(=O)NNC(=O)c1ccccn1` was tested, and the T/C (endpoint: mean survival time, dose: 12.5 mg/kg/injection, schedule: Q01DX009 (ip), vehicle: saline) was 114 % of control, the T/C (endpoint: mean survival time, dose: 25.0 mg/kg/injection, schedule: Q01DX009 (ip), vehicle: saline) was 110 % of control and the T/C (endpoint: mean survival time, dose: 50.0 mg/kg/injection, schedule: Q01DX009 (ip), vehicle: saline) was 104 % of control. For the same compound, the T/C (endpoint: mean survival time, dose: 50.0 mg/kg/injection, schedule: Q#A X018 (ip), vehicle: water) was 103 % of control, the T/C (endpoint: mean survival time, dose: 100.0 mg/kg/injection, schedule: Q01DX001 (ip), vehicle: water) was 101 % of control and the T/C [9] was 104 % of control. The T/C (endpoint: mean survival time, dose: 100.0 mg/kg/injection, schedule: Q01DX009 (ip), vehicle: water) was 110 % of control, the T/C (endpoint: mean survival time, dose: 100.0 mg/kg/injection, schedule: Q01DX009 (sc), vehicle: water) was 119 % of control and the T/C (endpoint: mean survival time, dose: 200.0 mg/kg/injection, schedule: Q01DX001 (ip), vehicle: water) was 109 % of control. The T/C (endpoint: mean survival time, dose: 200.0 mg/kg/injection, schedule: Q01DX009 (sc), vehicle: water) was 122 % of control.
